pIC50: −log10 of the molar value. Where “and” joins values, the source holds several entries; their conditions need not be identical. Equal values may be shown once.
Molecular target: T1, human 5-HT7 receptor (Homo sapiens, UniProt P34969)
T1 construct: expressed in transfected cells; host or cells: CHO cells
Test: 5-HT7 Receptor Binding Assay
Details: membranes of CHO cells expressing human 5-HT7 receptor; 1 nM 3H-5-carboxamidotryptamine; 25° C., 60 minutes
Experimental: 5-HT7 Receptor Binding Assay
Membranes are prepared for binding using the human 5-HT7 receptor expressed in CHO cells. Cells are collected and ruptured using a dounce homogenizer. The cells are spun at 18000× g for 10 minutes and the pellet is resuspended in assay buffer, frozen in liquid nitrogen and kept at −80° C. until the day of the assay.
A total of 30 ug protein is used per well. The assay is carried out in 96-deep-well plates. The assay buffer is 50 mM HEPES. The membrane preparation is incubated at 25° C. for 60 minutes with 0.1 nM to 1000 nM test compound and 1 nM ^3H-5-carboxamidotryptamine. 10 uM serotonin is used as blocking agent to determine non-specific binding. The reaction is terminated by the addition of 1 ml of ice cold 5OmM HEPES buffer and rapid filtration through a Brandel Cell Harvester using Whatman GF/B filters. The filter pads are counted in an LKB Trilux liquid scintillation counter. IC50 values are determined using non-linear regression by Exel-fit.

T1 sequence (P34969 whole entry): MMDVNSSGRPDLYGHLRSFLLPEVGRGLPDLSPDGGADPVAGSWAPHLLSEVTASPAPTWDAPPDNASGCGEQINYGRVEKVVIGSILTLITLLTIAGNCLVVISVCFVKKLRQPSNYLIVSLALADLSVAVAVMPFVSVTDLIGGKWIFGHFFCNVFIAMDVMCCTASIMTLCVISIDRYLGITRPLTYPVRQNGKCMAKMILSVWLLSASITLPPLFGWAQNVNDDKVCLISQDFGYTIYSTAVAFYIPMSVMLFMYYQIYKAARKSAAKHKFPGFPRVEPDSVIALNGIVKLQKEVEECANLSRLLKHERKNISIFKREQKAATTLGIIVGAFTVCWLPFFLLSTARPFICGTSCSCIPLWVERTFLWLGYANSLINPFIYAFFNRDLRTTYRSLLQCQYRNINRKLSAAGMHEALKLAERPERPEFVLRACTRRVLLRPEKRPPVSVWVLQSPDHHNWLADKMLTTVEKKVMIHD

| pIC50 | SMILES |
| --- | --- |
| ≥ 7.30 | CC(Nc1nc(N)nc(NC[C@@H]2C[C@H]2c2ccncc2)n1)c1ccccc1 (mixture of isomers) [(±)-trans-N-(1-Phenyl-ethyl)-N′-(2-pyridin-4-yl-cyclopropylmethyl)-[1,3,5]triazine-2,4,6-triamine] |
| ≥ 7.00 and < 7.30 | CC(Nc1nc(N)nc(NC[C@@H]2C[C@H]2c2ccccc2F)n1)c1ccccc1 (mixture of isomers) [(±)-trans-N-[2-(2-Fluoro-phenyl)-cyclopropylmethyl]-N′-(1-phenyl-ethyl)-[1,3,5]triazine-2,4,6-triamine] |
| ≥ 7.00 and < 7.30 | CC(Nc1nc(N)nc(NC[C@@H]2C[C@H]2c2ccc(F)cc2)n1)c1ccccc1 (mixture of isomers) [(±)-trans-N-[2-(4-Fluoro-phenyl)-cyclopropylmethyl]-N′-(1-phenyl-ethyl)-[1,3,5]triazine-2,4,6-triamine] |
| ≥ 7.30 | C[C@H](Nc1nc(N)nc(NC[C@H]2C[C@@H]2c2ccccc2F)n1)c1ccccc1 [(S,S)-trans-N-[2-(2-Fluoro-phenyl)-cyclopropylmethyl]-N′-(1-phenyl-ethyl)-[1,3,5]triazine-2,4,6-triamine] |
| ≥ 7.30 | C[C@H](Nc1nc(N)nc(NC[C@H]2C[C@@H]2c2ccc(F)cc2)n1)c1ccccc1 [(S,S)-trans-N-[2-(4-Fluoro-phenyl)-cyclopropylmethyl]-N′-(1-phenyl-ethyl)-[1,3,5]triazine-2,4,6-triamine] |
| 6.70 to 7.00 | CC(Nc1ccnc(NCCc2cccnc2)n1)c1ccccc1 (stereo not drawn) [Compound 1, N^4-(1-Phenylethyl)-N^2-[2-(3-pyridinyl)ethyl]pyrimidine-2,4-diamine] |
| 6.70 to 7.00 | c1ccc(CCNc2nccc(NCc3ccco3)n2)cc1 [Compound 2, N^4-(2-Furanylmethyl)-N^2-(2-phenylethyl)pyrimidine-2,4-diamine] |
| 6.70 to 7.00 | CC(Nc1ccnc(NCCc2c[nH]c3ccc(F)cc23)n1)c1ccccc1 (stereo not drawn) [Compound 3] |
| 6.70 to 7.00 | c1ccc(OCCNc2nccc(NCc3ccco3)n2)cc1 [Compound 4, N^4-(2-Furanylmethyl)-N^2-(2-phenoxyethyl)pyrimidine-2,4-diamine] |
| 7.00 to 7.29 | NC(=O)c1cccc(CNc2ccnc(NCCOc3ccccc3)n2)c1 [Compound 6, N^4-[3-(Aminocarbonyl)phenylmethyl]-N^2-(2-phenoxyethyl)pyrimidine-2,4-diamine] |
| 7.00 to 7.29 | CC(Nc1nccc(NCCc2c[nH]c3ccccc23)n1)c1ccccc1 (stereo not drawn) [Compound 7, N^4-[2-(1H-Indol-3-yl)ethyl]-N^2-(1-phenylethyl)pyrimidine-2,4-diamine] |
| 7.00 to 7.29 | CC(Nc1ccnc(NCCc2cccc(Br)c2)n1)c1ccccc1 (stereo not drawn) [Compound 8, N^2-[2-(3-Bromophenyl)ethyl]-N^4-(1-phenylethyl)pyrimidine-2,4-diamine] |
| 7.00 to 7.29 | CC(Nc1ccnc(NCCc2ccc(Br)cc2)n1)c1ccccc1 (stereo not drawn) [Compound 9, N^2-[2-(4-Bromophenyl)ethyl]-N^4-(1-phenylethyl)pyrimidine-2,4-diamine] |
| 7.00 to 7.29 | CC(Nc1ccnc(NC2Cc3ccccc3C2)n1)c1ccccc1 (stereo not drawn) [Compound 10, N^2-(Indan-2-yl)-N4-(1-phenylethyl)pyrimidine-2,4-diamine] |
| 7.00 to 7.29 | c1ccc(CCNc2nccc(NCc3cccnc3)n2)cc1 [Compound 11, N^2-(2-Phenylethyl)-N^4-(3-pyridinylmethyl)pyrimidine-2,4-diamine] |
| 7.00 to 7.29 | CC(Nc1ccnc(NCCc2ccccn2)n1)c1ccccc1 (stereo not drawn) [Compound 12, N^4-(1-Phenylethyl)-N^2-[2-(2-pyridinyl)ethyl]pyrimidine-2,4-diamine] |
| ≥ 7.30 | C[C@H](Nc1ccnc(NCCOc2ccccc2)n1)c1ccc(Br)cc1 [Compound 13, N^4-[(1S)-1-(4-Bromophenyl)ethyl]-N^2-(2-phenoxyethyl)pyrimidine-2,4-diamine] |
| ≥ 7.30 | CS(=O)(=O)Nc1cccc(CNc2ccnc(NCCOc3ccccc3)n2)c1 [Compound 14, N^4-{3-[(Methylsulfonyl)amino]phenylmethyl}-N^2-(2-phenoxyethyl)pyrimidine-2,4-diamine] |
| ≥ 7.30 | c1ccc(OCCNc2nccc(NCc3cccc4ccccc34)n2)cc1 [Compound 16, N^4-(1-Napthalenylmethyl)-N^2-(2-phenoxyethyl)pyrimidine-2,4-diamine] |
| ≥ 7.30 | C[C@H](Nc1ccnc(NCCOc2ccccc2)n1)c1cccc2ccccc12 [Compound 17, N^4-[(1S)-1-(1-Napthalenyl)ethyl]-N^2-(2-phenoxyethyl)pyrimidine-2,4-diamine] |
| ≥ 7.30 | c1ccc(OCCNc2nccc(NCc3cccs3)n2)cc1 [Compound 18, N^2-(2-Phenoxyethyl)-N^4-(2-thienylmethyl)pyrimidine-2,4-diamine] |

| pIC50 | SMILES |
| --- | --- |
| ≥ 7.30 | c1ccc(OCCNc2nccc(NCc3ccncc3)n2)cc1 [Compound 19, N^2-(2-Phenoxyethyl)-N^4-(4-pyridinylmethyl)pyrimidine-2,4-diamine] |
| ≥ 7.30 | c1ccc(OCCNc2nccc(NCc3cccnc3)n2)cc1 [Compound 20, N^2-(2-Phenoxyethyl)-N^4-(3-pyridinylmethyl)pyrimidine-2,4-diamine] |
| ≥ 7.30 | CC(Nc1ccnc(NCCc2cccc(O)c2)n1)c1ccccc1 (stereo not drawn) [Compound 21, N^2-[2-(3-Hydroxyphenyl)ethyl]-N^4-(1-phenylethyl)pyrimidine-2,4-diamine] |
| ≥ 7.30 | CC(Nc1ccnc(NCCc2cccc(C#N)c2)n1)c1ccccc1 (stereo not drawn) [Compound 22, N^2-[2-(3-Cyanophenyl)ethyl]-N^4-(1-phenylethyl)pyrimidine-2,4-diamine] |
| ≥ 7.30 | CC(Nc1ccnc(NCCC2=CCCCC2)n1)c1ccccc1 (stereo not drawn) [Compound 23, N^2-[2-(1-Cyclohexenyl)ethyl]-N^4-(1-phenylethyl)pyrimidine-2,4-diamine] |
| ≥ 7.30 | C[C@H](Nc1ccnc(NCCc2ccccc2)n1)c1cccc2ccccc12 [Compound 24, N^4-[(1S)-1-(1-Napthalenyl)ethyl]-N^2-(2-phenylethyl)pyrimidine-2,4-diamine] |
| ≥ 7.30 | Ic1cccc(CNc2ccnc(NCCc3ccccc3)n2)c1 [Compound 25, N^4-(3-Iodophenylmethyl)-N^2-(2-phenylethyl)pyrimidine-2,4-diamine] |
| ≥ 7.30 | Brc1cccc(CNc2ccnc(NCCc3ccccc3)n2)c1 [Compound 26, N^4-(3-Bromophenylmethyl)-N^2-(2-phenylethyl)pyrimidine-2,4-diamine] |
| ≥ 7.30 | c1ccc(CCNc2nccc(NCc3cccs3)n2)cc1 [Compound 27, N^2-(2-Phenylethyl)-N^4-(2-thienylmethyl)pyrimidine-2,4-diamine] |
| ≥ 7.30 | CC(Nc1ccnc(NCCn2ccc3ccccc32)n1)c1ccccc1 (stereo not drawn) [Compound 28, N^2-[2-(1H-Indol-1-yl)ethyl]-N^4-(1-phenylethyl)pyrimidine-2,4-diamine] |
| ≥ 7.30 | CC(Nc1ccnc(NCCc2cccs2)n1)c1ccccc1 (stereo not drawn) [Compound 29, N^4-(1-Phenylethyl)-N^2-[2-(2-thienyl)ethyl]pyrimidine-2,4-diamine] |
| ≥ 7.30 | CC(Nc1ccnc(N(C)CCc2c[nH]c3ccccc23)n1)c1ccccc1 (stereo not drawn) [Compound 30, N^2-[2(1H-Indol-3-yl)ethyl]-N^2-(methyl)-N^4-(1-phenylethyl)pyrimidine-2,4-diamine] |
| ≥ 7.30 | CC(Nc1ccnc(NCCc2c[nH]c3cc(F)ccc23)n1)c1ccccc1 (stereo not drawn) [Compound 31, N^2-[2-(6-Fluoro-1H-indol-3-yl)ethyl]-N^4-(1-phenylethyl)pyrimidine-2,4-diamine] |
| 6.70 to 7.00 | CC[C@H](Nc1nc(N)nc(NCCc2ccc(Cl)cc2)n1)c1ccccc1 [Compound 32, N^2-[2-(4-Chlorophenyl)ethyl]-N^4-[(1S)-1-phenylpropyl]-1,3,5-triazine-2,4,6-triamine] |
| 6.70 to 7.00 | CC[C@H](Nc1nc(N)nc(NCCc2ccc(Cl)c(Cl)c2)n1)c1ccccc1 [Compound 33, N^2-[2-(3,4-Dichlorophenyl)ethyl]-N^4-[(1S)-1-phenylpropyl]-1,3,5-triazine-2,4,6-triamine] |
| 6.70 to 7.00 | Cc1ccc(CCNc2nc(N)nc(N[C@@H](C)c3ccc(Br)cc3)n2)cc1 [Compound 34, N^2-[(1S)-1-(4-Bromophenyl)ethyl]-N^4-[2-(4-methylphenyl)ethyl]-1,3,5-triazine-2,4,6-triamine] |
| 6.70 to 7.00 | CC[C@H](Nc1nc(N)nc(NCC(C)c2ccccc2)n1)c1ccccc1 (stereo partly drawn) [Compound 35, N^2-[(1S)-1-Phenylpropyl]-N^4-(2-phenylpropyl)-1,3,5-triazine-2,4,6-triamine] |
| 6.70 to 7.00 | CC[C@H](Nc1nc(N)nc(NCCc2cccc(C(F)(F)F)c2)n1)c1ccccc1 [Compound 36, N^2-[(1S)-1-Phenylpropyl]-N^4-[2-(3-(trifluoromethyl)phenyl)ethyl]-1,3,5-triazine-2,4,6-triamine] |
| 6.70 to 7.00 | CC(CNc1nc(N)nc(N[C@@H](C)c2ccccc2)n1)c1ccccc1 (stereo partly drawn) [Compound 37, N^2-[(1S)-1-Phenylethyl]-N^4-(2-phenylpropyl)-1,3,5-triazine-2,4,6-triamine] |
| 6.70 to 7.00 | C[C@H](Nc1nc(N)nc(NCCNc2ccccc2)n1)c1cccc2ccccc12 [Compound 38, N^2-[(1S)-1-(1-Napthalenyl)ethyl]-N^4-[2-(phenylamino)ethyl]-1,3,5-triazine-2,4,6-triamine] |
| 6.70 to 7.00 | C[C@H](Nc1nc(N)nc(NCCc2ccc(Br)cc2)n1)c1ccc([N+](=O)[O-])cc1 [Compound 39, N^2-[2-(4-Bromophenyl)ethyl]-N^4-[(1S)-1-(4-nitrophenyl)ethyl]-1,3,5-triazine-2,4,6-triamine] |
